Measured values from ChEMBL document CHEMBL1151947, “Synthesis, potency, and in vivo evaluation of 2-piperazin-1-ylquinoline analogues as dual serotonin reuptake inhibitors and serotonin 5-HT1A receptor antagonists” (J Med Chem, 2009).
pIC50, pKi: −log10 of the molar value.

Legend:
[1] = target: T1, 5-hydroxytryptamine receptor 1A (Homo sapiens) (UniProt P08908); assay: Antagonist activity at human 5HT1A receptor expressed in CHO cells assessed as inhibition of [35S]GTPgammaS binding relative to control; type: functional, cell-based
T1 sequence (whole entry): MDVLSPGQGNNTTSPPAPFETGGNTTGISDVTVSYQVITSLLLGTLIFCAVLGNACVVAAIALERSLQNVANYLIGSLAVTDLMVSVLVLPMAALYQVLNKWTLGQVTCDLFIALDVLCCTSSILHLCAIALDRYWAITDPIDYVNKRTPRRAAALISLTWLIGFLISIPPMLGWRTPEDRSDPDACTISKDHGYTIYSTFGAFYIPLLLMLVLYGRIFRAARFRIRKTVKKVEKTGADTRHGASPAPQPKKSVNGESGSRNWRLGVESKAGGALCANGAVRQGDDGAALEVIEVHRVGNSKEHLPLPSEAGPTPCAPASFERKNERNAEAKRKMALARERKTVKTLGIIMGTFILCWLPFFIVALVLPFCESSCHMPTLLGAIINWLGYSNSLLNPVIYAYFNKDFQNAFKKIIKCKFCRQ

[2] = target: Sodium-dependent serotonin transporter (Rattus norvegicus, UniProt P31652)
Sodium-dependent serotonin transporter (Rattus norvegicus, UniProt P31652), sequence (P31652 whole entry): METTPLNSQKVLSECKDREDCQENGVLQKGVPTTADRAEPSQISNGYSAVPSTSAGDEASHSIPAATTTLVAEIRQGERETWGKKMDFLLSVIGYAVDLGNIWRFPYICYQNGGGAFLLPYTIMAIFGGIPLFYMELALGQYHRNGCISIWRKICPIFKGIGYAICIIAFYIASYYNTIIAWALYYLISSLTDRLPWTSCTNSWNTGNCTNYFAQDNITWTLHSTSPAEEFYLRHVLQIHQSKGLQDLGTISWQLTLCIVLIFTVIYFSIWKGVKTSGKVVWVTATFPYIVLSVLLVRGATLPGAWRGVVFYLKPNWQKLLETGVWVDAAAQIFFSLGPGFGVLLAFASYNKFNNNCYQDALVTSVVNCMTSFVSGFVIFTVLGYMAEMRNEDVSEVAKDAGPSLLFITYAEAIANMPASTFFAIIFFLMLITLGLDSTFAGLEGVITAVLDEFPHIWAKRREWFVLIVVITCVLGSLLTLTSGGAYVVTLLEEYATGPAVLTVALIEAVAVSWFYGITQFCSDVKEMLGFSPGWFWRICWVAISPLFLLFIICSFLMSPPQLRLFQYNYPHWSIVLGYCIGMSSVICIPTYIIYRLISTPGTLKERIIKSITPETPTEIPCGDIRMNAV
Description: Displacement of [3H]paroxetine from 5HT transporter in rat cortical membrane

[3] = target: T2, 5-hydroxytryptamine receptor 1A (Homo sapiens, UniProt P08908)
T2 sequence (P08908 whole entry): T1 sequence (whole entry)
Description: Antagonist activity at human 5HT1A receptor expressed in CHO cells assessed as stimulation of [35S]GTPgammaS binding

[4] = target: T2, 5-hydroxytryptamine receptor 1A; assay: biochemical
Description: Displacement of [3H]8-OH-DPAT from human 5HT1A receptor expressed in CHO cells

[5] = target: Sodium-dependent serotonin transporter (Homo sapiens, UniProt P31645); assay: Antagonist activity at human 5HT transporter expressed in staurosporine treated human JAR cells; type: functional, cell-based
Sodium-dependent serotonin transporter (Homo sapiens, UniProt P31645), sequence (P31645 whole entry): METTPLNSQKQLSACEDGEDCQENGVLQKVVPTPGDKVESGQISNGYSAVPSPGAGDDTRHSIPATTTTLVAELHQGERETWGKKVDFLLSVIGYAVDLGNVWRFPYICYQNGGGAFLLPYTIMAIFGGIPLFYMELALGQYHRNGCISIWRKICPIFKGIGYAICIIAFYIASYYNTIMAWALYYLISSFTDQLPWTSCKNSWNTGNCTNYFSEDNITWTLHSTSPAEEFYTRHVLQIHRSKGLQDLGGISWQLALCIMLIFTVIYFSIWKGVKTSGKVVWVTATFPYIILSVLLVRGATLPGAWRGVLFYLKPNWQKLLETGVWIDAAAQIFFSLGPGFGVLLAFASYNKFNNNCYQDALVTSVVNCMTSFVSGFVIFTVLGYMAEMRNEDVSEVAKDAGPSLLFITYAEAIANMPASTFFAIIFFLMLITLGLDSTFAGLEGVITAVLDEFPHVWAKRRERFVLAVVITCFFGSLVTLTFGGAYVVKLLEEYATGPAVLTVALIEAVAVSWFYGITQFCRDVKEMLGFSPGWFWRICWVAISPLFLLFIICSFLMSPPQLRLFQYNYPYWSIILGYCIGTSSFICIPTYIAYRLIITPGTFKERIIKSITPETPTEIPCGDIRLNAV

[6] = target: Sodium-dependent serotonin transporter (Rattus norvegicus) (UniProt P31652); assay: Ratio Ki for drug to Ki for (2S)-8-Methyl-2-{[4-(6-nitroquinolin-2-yl)piperazin-1-yl]- methyl}-2,3-dihydro[1,4]dioxino[2,3-f ]quinoline against 5HT transporter in rat cortical membrane; type: cell membranes
Sodium-dependent serotonin transporter (Rattus norvegicus), sequence (P31652 whole entry): as the sequence (P31652 whole entry) above

Compound | Imax [1] | pKi [2] | pIC50 [3] | pKi [4] | Ratio Ki [6] | pIC50 [5]
Cc1ccc2c3c(ccc2n1)OC[C@H](CN1CCN(c2ccc4ccccc4n2)C[C@@H]1C)O3 | 76.5% | 7.99 | 5.72 | – | – | –
Cc1ccc2c3c(ccc2n1)OC[C@H](CN1CCN(c2ccc4cc(F)ccc4n2)CC1)O3 | 100% | 7.18 | 5.66 | 7.48 | – | –
Cc1ccc2c3c(ccc2n1)OC[C@H](CN1CCCN(c2ccc4cc(F)ccc4n2)CC1)O3 | 74% | 8.41 | 7.15 | 8.82 | – | –
Cc1ccc2c3c(ccc2n1)OC[C@H](CN1CCN(c2ccc4cc(Br)ccc4n2)CC1)O3 | 96% | 7.90 | 6.81 | – | – | –
Cc1ccc2c3c(ccc2n1)OC[C@H](CN1CC=C(c2c[nH]c4ccccc24)CC1)O3 | 98.3% | 8.63 | 7.25 | 8.52 | – | 6.84
Cc1ccc2c3c(ccc2n1)OC[C@H](CN1CCN(c2ccc4ccccc4n2)C[C@H]1C)O3 | 85% | – | 6.93 | – | – | –

The remaining compounds from weak to strong by pIC50 [3], led by results:

Imax [1] | pKi [2] | pIC50 [3] | pKi [4] | Ratio Ki [6] | Compound | pIC50 [5]
100% | 7.12 | 5.31 | – | – | Cc1ccc2c3c(ccc2n1)OC[C@H](CN1CCN(c2ccc4ccccc4n2)CC1)O3 | –
62% | 9.06 | 6.11 | – | – | Cc1ccc2c3c(ccc2n1)OC[C@H](CN1CCN(c2ccc4cc(Cl)ccc4n2)CC1)O3 | –
85% | 6.83 | 6.23 | 6.76 | – | Cc1ccc2c3c(ccc2n1)OC[C@H](CN1CCN(c2ccc4cc(OC(F)(F)F)ccc4n2)CC1)O3 | –
79% | – | 6.53 | – | 9 | Cc1ccc2c3c(ccc2n1)OC[C@H](CN1CCN(c2ccc4cc([N+](=O)[O-])ccc4n2)CC1)O3 | –
92% | 7.05 | 6.74 | 8.55 | – | Cc1ccc2c3c(ccc2n1)OC[C@H](CN1CCN(c2ccc4cc(C#N)ccc4n2)C[C@H]1C)O3 | –
100% | 7.77 | 6.79 | – | – | Cc1ccc2c3c(ccc2n1)OC[C@H](CN1CCN(c2ccc4cc(C(N)=O)ccc4n2)CC1)O3 | –
58% | 8.13 | 7.15 | 8.17 | – | Cc1ccc2c3c(ccc2n1)OC[C@H](CN1CCCN(c2ccc4ccccc4n2)CC1)O3 | –
53% | – | 7.24 | 8.70 | – | Cc1ccc2c3c(ccc2n1)OC[C@H](CN1CCCN(c2ccc4cc(C#N)ccc4n2)CC1)O3 | –
